Molecular target: T1, Olfr1484 (Mus musculus, UniProt Q8VEU6)
T1 construct: gene Or5b122; full ORF with N-terminal Rho-tag (first 20 residues of human rhodopsin), Hana3A cells, co-expressed RTP1S
T1 sequence (Q8VEU6 1-315): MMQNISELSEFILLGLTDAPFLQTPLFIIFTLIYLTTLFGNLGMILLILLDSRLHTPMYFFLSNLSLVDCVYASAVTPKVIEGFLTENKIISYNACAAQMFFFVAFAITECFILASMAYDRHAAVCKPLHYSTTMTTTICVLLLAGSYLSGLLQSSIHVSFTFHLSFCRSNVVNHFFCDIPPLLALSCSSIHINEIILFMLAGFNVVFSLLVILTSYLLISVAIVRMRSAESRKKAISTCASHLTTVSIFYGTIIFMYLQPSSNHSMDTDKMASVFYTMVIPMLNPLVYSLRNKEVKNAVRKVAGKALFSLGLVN
Test: GloSensor cAMP luminescence in Hana3A cells
Format: cell-based
Conditions: agonist; vapor-phase stimulation, odorant diluted in mineral oil

Structure (SMILES): O=C1CCCCC1 [cyclohexanone]
- GloSensor cAMP luminescence in Hana3A cells: Olfr1484 to cyclohexanone (CH)
